≈ marks a conversion by molar mass, not a printed value. Bridge positions count the residues as written; N and C are the ends. Peptide text beside a SMILES is read from it.
Tests used:
[1] = Activity after incubation in serum (functional serum stability); format: in vitro ADME, pig
Experimental: To compare serum stability, a similar procedure was utilized, as described in Dong et al., with some modification. Briefly, a solution of 25% pig serum was made by diluting fresh pig serum with phosphate buffer saline (PBS). […] Suspension containing no peptide was considered the negative control. Experimental and control tubes were incubated for up to 7 or 24 h in 37 °C to allow for serum constituent interaction with the peptide. […] Experimental and control tubes were incubated for 2 h at 37 °C without shaking to allow for bactericidal action to occur. […] This experiment was carried out three independent times. […] On the other hand, SynPG-1 maintained strong antimicrobial activity even after 24 h of incubation in serum, indicated through a consistently low mean % growth, as compared to the controls seen in Figure 2b. […] All experiments were conducted three independent times. […] Data represent the mean ± SEM of three experiments. The asterisk represents p < 0.05 when compared with SynPG-1 by two-way ANOVA with a post hoc Tukey test.

[2] = tested on: Escherichia coli; format: cell-based; conditions: 2 h, pH 7
Experimental: (§1) Veterinary clinical isolates, including Salmonella typhimurium, multi-drug resistant Escherichia coli, methicillin-resistant Staphylococcus aureus (MRSA), and methicillin-resistant Staphylococcus pseudointermedius (MRSP), were kindly provided by Dr. H. Cai (Department of Pathobiology, University of Guelph, ON, Canada). An antibiogram for these strains is available in the supplementary text (Table S1). Gram-negative strains were cultured in Luria−Bertani (LB) broth. Gram-positive strains were cultured in Tryptic soy broth (TSB). Both cultures were grown under aerobic conditions at 37 °C.
(§2) The minimum bactericidal concentration (MBC) of SynPG-1 against the tested pathogens was identified through a broth macrodilution antimicrobial assay as previously described, with some modification. […] The buffer volume was adjusted to accommodate the addition of SynPG-1 and PG-1 so that the final solution volume was 0.5 mL for each tested concentration. Final peptide concentrations ranged from 0.1 µg/mL to 8 µg/mL. PG-1 at the known MBC (2 µg/mL E. coli; 4 µg/mL S. typhimurium; 0.5 µg/mL MRSP; 0.5 µg/mL MRSA) was considered the in-house positive control, while the suspension containing no peptide was considered the negative control. Experimental and control tubes were incubated for 2 h at 37 °C without shaking to allow for bactericidal action to occur. […] Colony numbers from each plate were recorded. […]

[3] = tested on: IPEC-J2 cells; assay: In vitro cell migration, transwell assay; format: cell-based, porcine; conditions: transwell 8-micron, serum-free DMEM F-12, 5 to 20 µg/mL, 16 h, Hoechst 33342 count; SynPG-1 not significant at higher concentrations
Experimental: A cell line, established from intestinal porcine enterocytes, isolated from the jejunum of a neonatal unsuckled piglet (IPEC-J2 cells, DSMZ), was grown in monolayer culture in Dulbecco’s modified Eagle’s medium (high glucose), supplemented with 10% fetal bovine serum (FBS) from Invitrogen, 100 IU/mL penicillin, and 100 µg/mL streptomycin. Cultures were maintained in a 5% CO2 humidified atmosphere at 37 °C and passaged every 2–3 days, with detachment via the Trypsin-EDTA solution (Sigma).
To evaluate migration of IPEC-J2 cells, 8-micron pore-sized cell culture transwell inserts were used (Millipore Inc, Temecula, CA, USA). A total of 1 × 10^5 cells were plated in the upper inserts of the transwell and placed within 24-well plates, containing serum-free DMEM F-12 in the absence and presence of SynPG-1 or PG-1, at concentrations ranging from 5 µg/mL to 20 µg/mL. After incubation for 16 h, the cells were fixed with 4% (w/v) paraformaldehyde. […] Migration was quantified by cell enumeration through Hoechst 33342 staining of cell nuclei (Thermo Fisher Scientific, Mississauga, ON, Canada). The results are represented as the relative fold increase in migrated cells when compared to the baseline migration of IPEC-J2 cells in serum-free media after 16 h.

[4] = 25% porcine intestinal fluid (pH 6.5) in PBS, 1 mg/mL peptide, 1 h 37 °C with shaking; residual activity vs E. coli at 20 µg/mL, colony count; three independent experiments
Experimental: Porcine digestive fluids were collected, as previously described by Wang et al. [44]. […] The gastrointestinal tract was kept at 4 °C during dissection, and collection of contents from the stomach and upper small intestine (duodenum and jejunum) was conducted within 5 h of sacrifice. Contents were centrifuged at 10,000 rpm (9600× g) for 10 min at 4 °C, and supernatant fluid was collected and stored at −80 °C until its use in the stability experiment. The pH of the collected supernatants were 3.5 and 6.5 for gastric fluid and duodenum fluid, respectively.
Procedures similar to those used by Egger et al. [45] were used for this experiment. […] Suspension containing no peptide was considered the negative control. After incubation, 10 µL of the incubated solutions was added for a total volume of 0.5 mL, consisting of 20 µL of mid-logarithmic phase E. coli cells, diluted to a concentration of about 1 × 10^5 CFU/mL, and 470 µL of 20 mM sodium phosphate buffer (pH 7). […] Stability in porcine digestive fluid was evaluated as the relative colony growth on plates from bacterial grown with digestive fluid and peptide treatments, in comparison to plates grown from bacteria grown with digestive fluid alone.
Stability was evaluated by comparing the mean growth of colonies on plates treated with peptides incubated in digestive fluids to colonies grown when treated without peptide. […]

[5] = tested on: MRSP; format: cell-based, Methicillin-resistant Staphylococcus pseudointermedius; conditions: 2 h, pH 7
Experimental: as §1, §2

[6] = tested on: MRSA; format: cell-based, Methicillin-resistant Staphylococcus aureus; conditions: 2 h, pH 7
Experimental: as §1, §2

[7] = tested on: pre-formed S. typhimurium biofilm; assay: Pre-formed biofilm destruction assay, crystal violet; format: cell-based, Salmonella typhimurium; conditions: 48 h pre-formed biofilm, 3 h peptide treatment 37 °C, crystal violet OD 590 nm; p < 0.05 vs control; three independent experiments, n = 6
Experimental: To test the destruction of preformed biofilms, in a 96-well plate, 15 µL of overnight culture, of either E. coli, S. typhimurium, or MRSA, was added to 150 µL of minimal salt media (40 mM […]; 22 mM KH2PO4; […] NH4CL; 740 mM NaCl; 2 mM MgSO4; 0.1 mM CaCl2; 22 mM supplemented with D-Glucose) in each well. Plates were placed in a static incubator at 37 °C for 48 h; the time required for untreated wells to form biofilm. After formation, minimal salt media was removed and wells were treated with 155 µL of minimal salt media containing PG-1 or SynPG-1. […] Plates were placed in a static incubator at 37 °C for 3 h. After 3 h, treated media was removed and wells were rinsed with 155 µL of PBS to remove planktonic cells. After sufficient drying of wells, 150 µL of 0.1% crystal violet stain was added to each well and incubated at room temperature for 30 min, after which dye was removed and wells were rinsed again with 155 µL of PBS. After sufficient drying of wells, 150 µL of 70% ethanol solution was added to each well and incubated at room temperature for 30 min. After 30 min, 100 µL of each well was added to a new 96-well plate and absorbance was measured at an OD of 590 nm.

**Q.** Which results are given for `CC[C@H](C)[C@H](NC(=O)[C@H](CCCCN)NC(=O)[C@H](CCCNC(=N)N)NC(=O)[C@H](CC(C)C)NC(=O)[C@H](CC(C)C)NC(=O)[C@H](CCCNC(=N)N)NC(=O)[C@H](CCCNC(=N)N)NC(=O)[C@H](CC(C)C)NC(=O)CN)C(=O)N[C@@H](CCCNC(=N)N)C(=O)NCC(=O)N[C@@H](CCCNC(=N)N)C(=O)N[C@@H](Cc1c[nH]c2ccccc12)C(=O)N[C@@H](CCCCN)C(=O)NCC(=O)NCC(=O)NCC(=O)N[C@@H](CCCNC(=N)N)C(=O)NCC(=O)NCC(=O)N[C@@H](CCCNC(=N)N)C(=O)N[C@@H](CC(C)C)C(=O)N[C@H]1CSSC[C@@H](C(=O)N[C@H](C(=O)NCC(=O)N[C@@H](CCCNC(=N)N)C(=O)O)C(C)C)NC(=O)[C@H](C(C)C)NC(=O)[C@@H]2CSSC[C@H](NC(=O)[C@H](Cc3ccc(O)cc3)NC1=O)C(=O)N[C@@H](CCCNC(=N)N)C(=O)N[C@@H](CCCNC(=N)N)C(=O)N[C@@H](CCCNC(=N)N)C(=O)N[C@@H](Cc1ccccc1)C(=O)N2` [SynPG-1, Syn-Protegrin-1] (H-GLRRLLRKIRGRWKGGGRGGRLCYCRRRFCVCVGR-OH; disulfide 23-32, 25-30; N-terminus and C-terminus assumed)?
**A.** Time of incubation in 25% serum for which antimicrobial activity is maintained [1]: ≤ 24 h; Increase in stability in 25% serum versus PG-1 ([1]; 24 h versus 2 h of retained activity in 25% serum): 12 fold; MBC [2]: 2 µg/mL (≈ 0.486 µM); Concentration at which cell migration increased significantly [3]: 5 µg/mL; Antimicrobial activity after incubation in 25% porcine intestinal fluid [4]: mean % growth of control increased; MBC [5]: 0.5 (0.09) μg/mL; MBC [6]: 0.5 (0.09) μg/mL; Concentration with significant disruption of pre-formed biofilm [7]: 8 µg/mL
